The values that follow come from paper PMC4685510, “A Cell Biologist’s Field Guide to Aurora Kinase Inhibitors” (Frontiers in Oncology, 2015).

The structures appear in SMILES notation.

Common to all, as to assay: biochemical
Holding throughout (assay type): biochemical

For assay [1], the target named is T1, 363 human kinases (including Aurora A/B/C) (Homo sapiens, UniProt O43781).
T1 sequence (O43781 1-588): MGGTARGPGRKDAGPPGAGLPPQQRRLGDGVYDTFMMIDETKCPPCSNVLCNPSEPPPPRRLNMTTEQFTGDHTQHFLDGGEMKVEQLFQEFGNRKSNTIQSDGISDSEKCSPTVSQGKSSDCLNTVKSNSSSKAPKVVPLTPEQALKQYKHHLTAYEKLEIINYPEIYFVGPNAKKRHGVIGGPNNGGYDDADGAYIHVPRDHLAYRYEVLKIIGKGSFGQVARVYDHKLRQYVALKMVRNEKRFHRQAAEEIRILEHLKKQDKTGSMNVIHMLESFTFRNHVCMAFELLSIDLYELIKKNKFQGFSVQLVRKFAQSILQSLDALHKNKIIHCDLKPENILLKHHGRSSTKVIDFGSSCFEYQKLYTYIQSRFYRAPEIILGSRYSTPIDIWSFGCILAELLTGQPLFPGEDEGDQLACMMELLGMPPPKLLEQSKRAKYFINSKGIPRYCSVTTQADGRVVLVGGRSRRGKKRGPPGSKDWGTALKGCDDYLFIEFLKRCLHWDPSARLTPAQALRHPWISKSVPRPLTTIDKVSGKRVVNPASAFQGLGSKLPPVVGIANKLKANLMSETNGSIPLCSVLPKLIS
The note with it: DYRK3, [ATP] 5 µM; for remaining activity at 0.5 µM / remaining activity at 0.1 µM: read-out: % Enzyme Activity (relative to DMSO controls); for remaining activity at 0.1 µM: 100 nM.
From the text: (§1) However, the Aurora A/B selectivity ratios derived from our in vitro and in vivo data can be compared to prioritize inhibitors.

Assay [2] concerns the target 363 human kinases (including Aurora A/B/C) (Homo sapiens, UniProt P07333). The note with it: FMS; for remaining activity at 0.5 µM / remaining activity at 0.1 µM: read-out: % Enzyme Activity (relative to DMSO controls); for remaining activity at 0.1 µM: 100 nM.
From the text: as §1
In assay [3] the target is 363 human kinases (including Aurora A/B/C) (Homo sapiens, UniProt P45983). The note with it: JNK1; for remaining activity at 0.5 µM / remaining activity at 0.1 µM: read-out: % Enzyme Activity (relative to DMSO controls); for remaining activity at 0.1 µM: 100 nM.
Sequence of 363 human kinases (including Aurora A/B/C) (Homo sapiens, UniProt P45983) (P45983 whole entry): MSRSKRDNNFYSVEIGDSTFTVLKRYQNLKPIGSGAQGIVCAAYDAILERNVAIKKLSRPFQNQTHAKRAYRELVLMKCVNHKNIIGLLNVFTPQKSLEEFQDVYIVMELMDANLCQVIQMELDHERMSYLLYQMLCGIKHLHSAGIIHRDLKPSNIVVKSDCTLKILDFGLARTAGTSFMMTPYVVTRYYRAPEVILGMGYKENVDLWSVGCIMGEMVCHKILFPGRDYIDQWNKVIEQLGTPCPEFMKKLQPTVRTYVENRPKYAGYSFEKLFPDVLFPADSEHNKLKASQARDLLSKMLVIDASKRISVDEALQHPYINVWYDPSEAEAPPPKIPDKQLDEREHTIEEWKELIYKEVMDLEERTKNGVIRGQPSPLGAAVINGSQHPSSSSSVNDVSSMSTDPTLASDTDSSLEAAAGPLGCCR
From the text: as §1
For assay [4], the target named is 363 human kinases (including Aurora A/B/C) (Homo sapiens, UniProt Q5S007). The note with it: LRRK2; for remaining activity at 0.5 µM / remaining activity at 0.1 µM: read-out: % Enzyme Activity (relative to DMSO controls); for remaining activity at 0.1 µM: 100 nM.
Sequence of 363 human kinases (including Aurora A/B/C) (Homo sapiens, UniProt Q5S007) (Q5S007 whole entry): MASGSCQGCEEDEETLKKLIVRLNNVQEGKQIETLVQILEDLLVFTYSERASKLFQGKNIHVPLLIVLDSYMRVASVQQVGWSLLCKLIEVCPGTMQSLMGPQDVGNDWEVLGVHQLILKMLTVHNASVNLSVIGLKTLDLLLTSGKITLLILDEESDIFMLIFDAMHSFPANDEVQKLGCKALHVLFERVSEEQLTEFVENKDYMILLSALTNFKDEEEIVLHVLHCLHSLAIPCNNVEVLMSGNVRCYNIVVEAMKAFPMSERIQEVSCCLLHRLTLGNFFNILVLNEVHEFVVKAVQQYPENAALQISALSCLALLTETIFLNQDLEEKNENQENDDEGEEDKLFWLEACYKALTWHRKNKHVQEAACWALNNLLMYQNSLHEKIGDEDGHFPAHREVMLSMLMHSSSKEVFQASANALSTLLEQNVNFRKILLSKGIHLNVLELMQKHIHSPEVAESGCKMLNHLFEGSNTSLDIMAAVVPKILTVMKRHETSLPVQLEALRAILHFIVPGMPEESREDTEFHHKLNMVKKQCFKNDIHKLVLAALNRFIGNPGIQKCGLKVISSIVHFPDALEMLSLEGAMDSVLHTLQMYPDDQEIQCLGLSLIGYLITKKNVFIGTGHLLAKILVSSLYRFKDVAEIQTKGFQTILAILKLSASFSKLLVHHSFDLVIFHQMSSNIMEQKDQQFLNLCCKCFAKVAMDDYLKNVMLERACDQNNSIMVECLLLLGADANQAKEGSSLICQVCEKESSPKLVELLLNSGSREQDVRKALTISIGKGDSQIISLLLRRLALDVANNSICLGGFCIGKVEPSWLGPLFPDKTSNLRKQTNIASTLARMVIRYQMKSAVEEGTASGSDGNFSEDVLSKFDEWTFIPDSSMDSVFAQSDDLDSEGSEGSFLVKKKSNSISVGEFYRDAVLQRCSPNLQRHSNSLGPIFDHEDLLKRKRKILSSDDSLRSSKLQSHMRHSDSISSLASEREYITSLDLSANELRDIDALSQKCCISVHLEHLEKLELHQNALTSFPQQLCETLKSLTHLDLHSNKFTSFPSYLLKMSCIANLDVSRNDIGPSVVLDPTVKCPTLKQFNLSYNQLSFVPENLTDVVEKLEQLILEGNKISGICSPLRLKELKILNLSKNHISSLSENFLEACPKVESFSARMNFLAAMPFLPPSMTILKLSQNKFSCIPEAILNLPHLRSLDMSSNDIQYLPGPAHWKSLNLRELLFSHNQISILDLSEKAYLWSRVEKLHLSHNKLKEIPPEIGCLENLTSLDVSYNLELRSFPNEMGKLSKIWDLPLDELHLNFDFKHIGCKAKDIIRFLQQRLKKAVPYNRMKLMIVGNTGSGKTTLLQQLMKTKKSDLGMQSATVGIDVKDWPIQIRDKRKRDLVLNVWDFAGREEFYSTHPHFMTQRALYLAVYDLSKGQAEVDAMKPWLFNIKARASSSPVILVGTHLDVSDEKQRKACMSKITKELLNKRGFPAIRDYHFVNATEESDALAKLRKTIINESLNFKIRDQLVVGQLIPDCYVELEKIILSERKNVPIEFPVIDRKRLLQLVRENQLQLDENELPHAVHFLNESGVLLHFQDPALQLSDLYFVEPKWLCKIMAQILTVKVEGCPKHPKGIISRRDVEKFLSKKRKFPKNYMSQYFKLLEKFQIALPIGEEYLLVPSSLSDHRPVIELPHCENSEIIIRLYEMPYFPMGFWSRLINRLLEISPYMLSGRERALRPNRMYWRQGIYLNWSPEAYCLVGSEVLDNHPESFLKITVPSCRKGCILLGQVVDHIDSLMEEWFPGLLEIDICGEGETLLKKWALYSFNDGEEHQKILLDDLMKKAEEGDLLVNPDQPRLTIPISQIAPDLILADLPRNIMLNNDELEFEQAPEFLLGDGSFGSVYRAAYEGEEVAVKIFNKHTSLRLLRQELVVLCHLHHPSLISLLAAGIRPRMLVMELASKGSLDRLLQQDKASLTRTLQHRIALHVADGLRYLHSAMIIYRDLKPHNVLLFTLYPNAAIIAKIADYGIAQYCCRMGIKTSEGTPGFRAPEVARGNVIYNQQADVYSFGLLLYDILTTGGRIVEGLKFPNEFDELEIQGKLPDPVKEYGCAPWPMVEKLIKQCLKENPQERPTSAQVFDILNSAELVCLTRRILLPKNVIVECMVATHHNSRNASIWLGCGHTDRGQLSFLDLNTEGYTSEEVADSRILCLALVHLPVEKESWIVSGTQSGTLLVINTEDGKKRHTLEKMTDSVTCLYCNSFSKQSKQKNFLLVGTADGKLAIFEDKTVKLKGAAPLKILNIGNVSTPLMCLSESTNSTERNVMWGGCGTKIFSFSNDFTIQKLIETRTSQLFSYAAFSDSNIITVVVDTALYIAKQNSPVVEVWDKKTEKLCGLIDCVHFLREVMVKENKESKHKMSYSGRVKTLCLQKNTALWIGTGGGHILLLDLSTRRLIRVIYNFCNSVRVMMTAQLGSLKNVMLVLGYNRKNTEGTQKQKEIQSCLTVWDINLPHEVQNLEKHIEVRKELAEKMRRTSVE
From the text: as §1
Assay [5] has as its target 363 human kinases (including Aurora A/B/C) (Homo sapiens, UniProt Q5TCY1). The note with it: TTBK1; for remaining activity at 0.5 µM / remaining activity at 0.1 µM: read-out: % Enzyme Activity (relative to DMSO controls); for remaining activity at 0.1 µM: 100 nM.
From the text: as §1
For assay [6], the target named is 363 human kinases (including Aurora A/B/C) (Homo sapiens, UniProt Q6P2M8). The note with it: CAMK1b, [ATP] 5 µM; for remaining activity at 0.5 µM / remaining activity at 0.1 µM: read-out: % Enzyme Activity (relative to DMSO controls); for remaining activity at 0.1 µM: 100 nM.
Sequence of 363 human kinases (including Aurora A/B/C) (Homo sapiens, UniProt Q6P2M8) (Q6P2M8 whole entry): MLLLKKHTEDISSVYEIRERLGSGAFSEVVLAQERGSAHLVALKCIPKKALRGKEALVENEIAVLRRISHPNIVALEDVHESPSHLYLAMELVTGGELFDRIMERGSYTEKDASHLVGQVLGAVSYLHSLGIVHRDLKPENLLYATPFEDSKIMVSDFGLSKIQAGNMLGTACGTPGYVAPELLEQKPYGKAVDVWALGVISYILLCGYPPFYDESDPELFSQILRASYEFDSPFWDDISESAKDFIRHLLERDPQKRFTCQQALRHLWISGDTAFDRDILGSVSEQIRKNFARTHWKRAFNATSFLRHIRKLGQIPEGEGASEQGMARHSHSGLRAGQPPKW
From the text: as §1
In assay [7] the target is 363 human kinases (including Aurora A/B/C) (Homo sapiens, UniProt Q8N4C8). The conditions noted are these: MINK/MINK1; for remaining activity at 0.5 µM / remaining activity at 0.1 µM: read-out: % Enzyme Activity (relative to DMSO controls); for remaining activity at 0.1 µM: 100 nM.
Sequence of 363 human kinases (including Aurora A/B/C) (Homo sapiens, UniProt Q8N4C8) (Q8N4C8 whole entry): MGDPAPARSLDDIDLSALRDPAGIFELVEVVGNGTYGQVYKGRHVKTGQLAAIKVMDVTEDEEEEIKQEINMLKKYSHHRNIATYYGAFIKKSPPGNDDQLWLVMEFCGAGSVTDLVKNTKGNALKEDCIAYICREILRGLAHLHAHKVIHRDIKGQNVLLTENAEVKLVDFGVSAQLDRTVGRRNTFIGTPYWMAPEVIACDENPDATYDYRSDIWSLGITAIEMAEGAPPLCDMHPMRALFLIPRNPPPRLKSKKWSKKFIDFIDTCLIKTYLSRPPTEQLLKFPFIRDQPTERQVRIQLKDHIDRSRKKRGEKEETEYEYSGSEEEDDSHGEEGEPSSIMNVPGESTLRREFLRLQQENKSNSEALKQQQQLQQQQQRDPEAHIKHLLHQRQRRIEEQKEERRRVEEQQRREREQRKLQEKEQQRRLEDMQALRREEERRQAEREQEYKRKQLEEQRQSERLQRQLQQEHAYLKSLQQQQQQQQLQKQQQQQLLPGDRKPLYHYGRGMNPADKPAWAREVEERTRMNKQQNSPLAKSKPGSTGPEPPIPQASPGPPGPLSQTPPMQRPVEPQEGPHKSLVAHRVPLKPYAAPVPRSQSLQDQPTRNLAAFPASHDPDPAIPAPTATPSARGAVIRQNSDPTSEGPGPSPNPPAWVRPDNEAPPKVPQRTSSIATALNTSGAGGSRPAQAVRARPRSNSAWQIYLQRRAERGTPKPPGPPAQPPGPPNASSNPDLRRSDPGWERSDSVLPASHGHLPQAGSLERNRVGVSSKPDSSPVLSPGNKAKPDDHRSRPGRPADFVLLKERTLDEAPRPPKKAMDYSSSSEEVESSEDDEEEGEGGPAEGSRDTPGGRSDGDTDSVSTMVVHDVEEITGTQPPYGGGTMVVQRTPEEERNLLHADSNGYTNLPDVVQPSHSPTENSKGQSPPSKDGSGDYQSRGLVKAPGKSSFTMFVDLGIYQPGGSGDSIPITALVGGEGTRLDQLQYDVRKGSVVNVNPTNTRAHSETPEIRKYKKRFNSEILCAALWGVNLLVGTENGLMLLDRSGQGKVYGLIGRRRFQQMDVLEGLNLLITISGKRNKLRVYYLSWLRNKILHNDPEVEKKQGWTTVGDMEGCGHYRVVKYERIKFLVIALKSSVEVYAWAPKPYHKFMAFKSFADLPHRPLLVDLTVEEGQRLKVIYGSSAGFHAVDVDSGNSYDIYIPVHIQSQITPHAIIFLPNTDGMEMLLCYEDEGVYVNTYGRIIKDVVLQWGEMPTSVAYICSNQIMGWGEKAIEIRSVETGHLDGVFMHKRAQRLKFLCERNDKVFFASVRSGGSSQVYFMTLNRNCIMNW
From the text: as §1
The target of assay [8] is 363 human kinases (including Aurora A/B/C) (Homo sapiens, UniProt Q8TDX7). The conditions noted are these: NEK7; for remaining activity at 0.5 µM / remaining activity at 0.1 µM: read-out: % Enzyme Activity (relative to DMSO controls); for remaining activity at 0.1 µM: 100 nM.
Sequence of 363 human kinases (including Aurora A/B/C) (Homo sapiens, UniProt Q8TDX7) (Q8TDX7 whole entry): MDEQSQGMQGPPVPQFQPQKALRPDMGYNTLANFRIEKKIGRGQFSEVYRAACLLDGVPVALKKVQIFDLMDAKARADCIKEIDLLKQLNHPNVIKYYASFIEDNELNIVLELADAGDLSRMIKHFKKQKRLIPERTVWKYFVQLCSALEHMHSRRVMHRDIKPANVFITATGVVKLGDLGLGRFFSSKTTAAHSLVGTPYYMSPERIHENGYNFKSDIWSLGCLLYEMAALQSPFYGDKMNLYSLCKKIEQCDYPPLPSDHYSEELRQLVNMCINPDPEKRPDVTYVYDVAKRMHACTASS
From the text: as §1
Assay [9] has as its target T2, 363 human kinases (including Aurora A/B/C) (Homo sapiens, UniProt Q8WXR4).
T2 sequence (Q8WXR4 1-1341): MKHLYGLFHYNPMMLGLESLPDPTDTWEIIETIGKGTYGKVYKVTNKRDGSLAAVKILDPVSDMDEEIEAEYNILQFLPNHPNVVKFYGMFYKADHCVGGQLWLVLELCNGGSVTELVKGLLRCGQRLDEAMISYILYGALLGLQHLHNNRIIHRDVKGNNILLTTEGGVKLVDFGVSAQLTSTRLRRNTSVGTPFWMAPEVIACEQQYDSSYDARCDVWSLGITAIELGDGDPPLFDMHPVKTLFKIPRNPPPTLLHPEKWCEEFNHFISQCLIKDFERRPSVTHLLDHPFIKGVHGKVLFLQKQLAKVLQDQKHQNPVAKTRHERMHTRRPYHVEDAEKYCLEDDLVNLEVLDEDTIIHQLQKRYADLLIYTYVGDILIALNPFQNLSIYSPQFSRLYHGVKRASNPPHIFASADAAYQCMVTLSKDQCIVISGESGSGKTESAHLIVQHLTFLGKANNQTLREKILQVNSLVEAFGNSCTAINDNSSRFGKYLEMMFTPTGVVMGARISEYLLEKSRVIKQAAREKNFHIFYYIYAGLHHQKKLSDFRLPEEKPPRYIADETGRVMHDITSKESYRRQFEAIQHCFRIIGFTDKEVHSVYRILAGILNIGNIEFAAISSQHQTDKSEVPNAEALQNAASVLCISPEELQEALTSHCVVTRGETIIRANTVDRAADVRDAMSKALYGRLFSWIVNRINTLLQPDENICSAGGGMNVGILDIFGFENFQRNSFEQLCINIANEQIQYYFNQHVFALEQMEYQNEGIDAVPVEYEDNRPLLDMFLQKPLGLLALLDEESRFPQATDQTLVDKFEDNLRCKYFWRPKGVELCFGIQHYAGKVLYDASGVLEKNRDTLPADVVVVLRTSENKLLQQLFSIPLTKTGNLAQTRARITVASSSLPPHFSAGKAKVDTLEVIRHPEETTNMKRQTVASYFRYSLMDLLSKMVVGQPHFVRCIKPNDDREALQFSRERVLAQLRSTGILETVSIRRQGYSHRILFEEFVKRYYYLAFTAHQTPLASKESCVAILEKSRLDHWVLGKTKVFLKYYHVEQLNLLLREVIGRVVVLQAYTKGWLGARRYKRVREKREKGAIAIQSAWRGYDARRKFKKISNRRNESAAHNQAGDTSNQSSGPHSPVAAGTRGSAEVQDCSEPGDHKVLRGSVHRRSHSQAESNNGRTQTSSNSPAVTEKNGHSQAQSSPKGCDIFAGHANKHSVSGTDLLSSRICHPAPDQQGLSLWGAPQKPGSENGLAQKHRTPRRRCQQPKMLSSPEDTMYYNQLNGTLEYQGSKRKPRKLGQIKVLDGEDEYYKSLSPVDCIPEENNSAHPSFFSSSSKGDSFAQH
The note with it: MYO3b; for remaining activity at 0.5 µM / remaining activity at 0.1 µM: read-out: % Enzyme Activity (relative to DMSO controls); for remaining activity at 0.1 µM: 100 nM.
From the text: as §1

On to `O=C(c1cccc(Cl)c1F)N1CCN(Cc2cccc(Nc3nccs3)n2)CC1` [MK-8745], for which the “% Enzyme Activity (relative to DMSO controls)” value in [1] (500 nM) stood at 92.33%; in assay [2] (500 nM), 92.34%; in assay [3] (500 nM), 13.45%; in assay [4] (500 nM), 88.73%; in assay [5] (500 nM) it was 108.75%; in [6] (500 nM), 98.69%. The “% Enzyme Activity (relative to DMSO controls)” value in assay [7] (500 nM) stood at 82.81%; in [8] (500 nM), 107.51%; in assay [9] (500 nM), 106.69%. Also, the remaining activity at 0.5 µM in assay [1] (500 nM) was determined as 92.3%; in [2] (500 nM), 95%; in [3] (500 nM), 13.8%; in assay [4] (500 nM), 92.8%; in assay [5] (500 nM), 111%; in assay [6] (500 nM), 100%. Besides, the remaining activity at 0.5 µM in [7] (500 nM) was found to be 86.8%; in assay [8] (500 nM), 109%; in assay [9] (500 nM), 107%.

Turning to `CCn1cc(-c2ccnc3[nH]c(-c4cccc(CN(C)C)c4)cc23)c(-c2ccc(NC(=O)N(C)C)cc2)n1` [GSK1070916], the remaining activity at 0.1 µM in assay [1] amounted to 96%; in assay [2], 80.2%; in [3], 98%; in assay [4], 92.1%; in [5], 115%; in [6], 99.4%. Moreover, the remaining activity at 0.1 µM is 78.3% in [7], 102% in [8] and 102% in assay [9].

`O=C(O)[C@]1(Cc2cccc(Nc3nccs3)n2)CC[C@@H](Oc2cccc(Cl)c2F)CC1` [MK-5108]: the remaining activity at 0.1 µM in assay [1] turned out to be 87.2%; in [2] it was 78.2%; in [3], 61.8%; in assay [4], 52.7%; in assay [5] it was 101%; in assay [6], 89.2%. Moreover, the remaining activity at 0.1 µM in [7] was 80%; in assay [8] it was 98.5%; in assay [9], 99.8%. The remaining activity at 0.5 µM is 92.2% in assay [1] (500 nM); 51.9% in [2] (500 nM); 29.3% in [3] (500 nM); 14.2% in assay [4] (500 nM); 116% in assay [5] (500 nM); 102% in assay [6] (500 nM). Moreover, the remaining activity at 0.5 µM in [7] (500 nM) worked out at 53.4%; in [8] (500 nM) it was 109%; in assay [9] (500 nM), 100%.
